Values quoted from earlier work in patent US20140050728A1, “METHODS AND COMPOSITIONS FOR INHIBITING CYCLOPHILIN D FOR THE TREATMENT AND PREVENTION OF OBESITY AND KIDNEY INDICATIONS” (BOARD OF REGENTS OF THE UNIVERSITY OF NEBRASKA, priority 2011, published 2014).

Details: for weight loss in clinical trials: none of the trials achieved the NIH effectiveness threshold

Compound | weight loss in clinical trials | cardiovascular risk associated with use (banned in Europe, cautioned by U.S. FDA)
CCCCCCCCCCC[C@@H](C[C@@H]1OC(=O)[C@H]1CCCCCC)OC(=O)[C@H](CC(C)C)NC=O [orlistat] | modest weight loss | 
CC(C)CC(N(C)C)C1(c2ccc(Cl)cc2)CCC1 (stereo not drawn) [sibutramine] | modest weight loss | increased cardiovascular risk
